Data reported in patent US8084621B2, “3-Pyrrolo[b]cyclohexylene-2-dihydroindolinone derivatives and uses thereof” (Jiangsu Simcere Pharmaceutical R&D Co. Ltd., priority 2006, dated 2011).

Legend:
Format in all cases: cell-based
[1] = test system: Human Bladder Cancer Cell Line (T24); assay: Tumor cell proliferation assay (MTT), T24; conditions: for inhibition at 10 µM: concentration of 10^−5 mol/L, preliminary screening, 72 hours, read-out: Inhibition rate % T24; for IC50: secondary screening, 48 hours
Source text: (§1) The assay used generally is the blue tetrazolium bromide (MTT) method. […] The amount of formazan can be detected by the microplate reader through the absorption value at 570 nm. The amount of formazan product generated is proportional to the number of living cells in the sample, so the OD value may reflect the number of living cells and the ability of a test drug to inhibit or kill cells. The MTT assay may be used in determining the ability of different compounds of the present invention to inhibit one or more cancer cells proliferation. Similar assays can be designed along the same lines for any cancer cell using techniques well known in the art.
(§2) The assay used generally is the blue tetrazolium bromide (MTT) method. […] Intracellular purple formazan salt crystals can be solved in DMSO and the absorption value at 570 nm is detected by the microplate reader, then the number of living cells can be detected indirectly. So MTT assay may be used to determine the ability of a compound of the present invention to inhibit cell proliferation. Similar assays can be designed along the same lines for any cancer cell using techniques well known in the art.
2.2.7 Human Bladder Cancer Cell Line (T24);
(§3) The cells of 2.2.6, 2.2.7 cultured in RPMI 1640 medium containing 12% fetal bovine serum in the condition of 37° C., 5% CO2.
(§4) 2.3.1 Cell seeding: Trypsinize the cell by 0.05% trypsin-EDTA and add RPMI 1640 medium (DMEM or 5A) containing 12% calf serum. Count the number, then dilute to 1.67×10^4/ml. Add 180 ul/well to the 96 well plate (3000 cells/well).
(§5) 2.3.2 Culture: cells are incubated for 24 hours at 37° C. under 5% CO2.
(§6) 2.3.3 Preliminary screening: The compounds are firstly diluted to 0.1 mol/L with DMSO, and then diluted to three concentrations of 10^−5 mol/L, 10^−6 mol/L and 10^−7 mol/L. Add 20 ul test compounds to the 96 well plate and incubate for 72 hours. Each group has three parallel wells and all experiments repeat three times. Each inhibition ratio is calculated, then an average value of three times is taken as the measured value. 2.3.4 Staining 2.3.4.1 Attached cell: add 20 ul/well MTT to the 96-well plates; incubate for 4 hours in the incubator. Pour out the culture medium in the well and add 100 ul/well DMSO. Shake the plate for 5 min. 2.3.4.2 Suspension cell: add 20 ul/well MTT to the 96-well plates; incubate for 4 hours in the incubator. Add 50 ul/well 20% SDS and incubate for overnight in the incubator. 2.3.5 Reading the plates: read the absorbance A570-A630 with the Infinite M200 microtiter plate reader. Calculate the inhibition ratio of the test compounds. 2.3.6 Secondary screening: the compounds whose inhibition ratio is greater than 50% at the concentrations of 10^−5 mol/L in the preliminary screening will be picked out for Secondary screening. Dilute these compounds to ten concentrations: 10^−5 mol/L, 0.5×10^−5 mol/L, 10^−6 mol/L, 0.8×10^−6 mol/L, 0.6×10^−6 mol/L, 0.4×10^−6 mol/L, 0.2×10^−6 mol/L, 10^−7 mol/L, 0.8×10^−7 mol/L and 0.4×10^−7 mol/L. Add 20 ul test compound solution to the 96 well plate and incubate for 48 hours. Each group has three parallel wells and all experiments repeat for three times. Read the plates and calculate the inhibition ratio according to the preliminary screening method. 2.3.7 Calculate the Inhibition Ratio of Cell Proliferation and the IC50
(§7) According to the inhibition ratio of cell proliferation at the different concentrations of the compound, inhibition ratio of 50% of the test compound is calculated through the logarithm of the concentration of the compound with the Logit [I] linear regression, and an average value of three times is taken as the measured value of a sample.

[2] = test system: Human Hepatocellular Carcinoma Cell Line (HEPG2); assay: Tumor cell proliferation assay (MTT), HEPG2; conditions: for inhibition at 10 µM: concentration of 10^−5 mol/L, preliminary screening, 72 hours, read-out: Inhibition rate % HEPG2; for IC50: secondary screening, 48 hours
Source text: as §1, §2
2.2.8 Human Hepatocellular Carcinoma Cell Line (HEPG2);
The cells of 2.2.8, 2.2.9 cultured in DMEM/High glucose medium containing 12% calf serum in the condition of 37° C., 5% CO2.
as §4, §5, §6, §7

[3] = test system: Human Colon Cancer Cell Line (HT-29); assay: Tumor cell proliferation assay (MTT), HT29; conditions: for inhibition at 10 µM: concentration of 10^−5 mol/L, preliminary screening, 72 hours, read-out: Inhibition rate % HT29; for IC50: secondary screening, 48 hours
Source text: as §1, §2
2.2.11 Human Colon Cancer Cell Line (HT-29);
(§8) The cells of 2.2.11, 2.2.12, 2.2.13 were cultured in MC COYS 5-A medium containing 12% fetal bovine serum in the condition of 37° C., 5% CO2.
as §4, §5
as §6, with “2.3.6 Secondary screening: the compounds whose inhibition ratio is greater than 50% at the concentrations of 10^−5 mol/L in the preliminary screening will be picked out for Secondary screening.” left out
as §7

[4] = test system: Human Colon Cancer Cell Line (CACO-2); assay: Tumor cell proliferation assay (MTT), CACO-2; conditions: concentration of 10^−5 mol/L, preliminary screening, 72 hours, read-out: Inhibition rate % CACO-2
Source text: as §1, §2
2.2.10 Human Colon Cancer Cell Line (CACO-2)
The cell of 2.2.10 cultured in DMEM/High glucose medium containing 12% fetal bovine serum in the condition of 37° C., 5% CO2.
as §4, §5, §6, §7

[5] = test system: Human Pancreatic Carcinoma Cell Line (BXPC-3); assay: Tumor cell proliferation assay (MTT), BXPC-3; conditions: for inhibition at 10 µM: concentration of 10^−5 mol/L, preliminary screening, 72 hours, read-out: Inhibition rate % BXPC-3; for IC50: secondary screening, 48 hours
Source text: as §1, §2
2.2.6 Human Pancreatic Carcinoma Cell Line (BXPC-3);
as §3, §4, §5
as §6, with “2.3.6 Secondary screening: the compounds whose inhibition ratio is greater than 50% at the concentrations of 10^−5 mol/L in the preliminary screening will be picked out for Secondary screening.” left out
as §7

[6] = test system: Human Gastric Cancer Cell Line (BGC); assay: Tumor cell proliferation assay (MTT), BGC; conditions: for inhibition at 10 µM: concentration of 10^−5 mol/L, preliminary screening, 72 hours, read-out: Inhibition rate % BGC; for IC50: secondary screening, 48 hours
Source text: as §1, §2
2.2.1 Human Gastric Cancer Cell Line (BGC)
(§9) The cells of the 2.2.1, 2.2.2, 2.2.3, 2.2.4, 2.2.5 cultured with RPMI 1640 containing 12% calf serum in the condition of 37° C., 5% CO2.
as §4, §5, §6, §7

[7] = test system: Human Pancreatic Carcinoma Cells (PANC-1); assay: Tumor cell proliferation assay (MTT), PANC-1; conditions: for inhibition at 10 µM: concentration of 10^−5 mol/L, preliminary screening, 72 hours, read-out: Inhibition rate % PANC-1; for IC50: secondary screening, 48 hours
Source text: as §1, §2
2.2.4 Human Pancreatic Carcinoma Cells (PANC-1)
as §9, §4, §5, §6, §7

[8] = test system: Human Non-Small Cell Lung Cancer Cell Line (A549); assay: Tumor cell proliferation assay (MTT), A549; conditions: for inhibition at 10 µM: concentration of 10^−5 mol/L, preliminary screening, 72 hours, read-out: Inhibition rate % A549; for IC50: secondary screening, 48 hours
Source text: as §1, §2
2.2.2 Human Non-Small Cell Lung Cancer Cell Line (A549)
as §9, §4, §5, §6, §7

[9] = test system: Human Leukemia Line (K562); assay: Tumor cell proliferation assay (MTT), K562; conditions: concentration of 10^−5 mol/L, preliminary screening, 72 hours, read-out: Inhibition rate % K562
Source text: as §1, §2
2.2.3 Human Leukemia Line (K562)
as §9, §4, §5, §6, §7

[10] = test system: Human Colon Cancer Cell Line (HCT 116); assay: Tumor cell proliferation assay (MTT), HCT116; conditions: concentration of 10^−5 mol/L, preliminary screening, 72 hours, read-out: Inhibition rate % HCT116
Source text: as §1, §2
2.2.12 Human Colon Cancer Cell Line (HCT 116);
as §8, §4, §5, §6, §7

[11] = test system: Human Small Cell Lung Cancer Cell Line (NCI-H446); assay: Tumor cell proliferation assay (MTT), NCI-H446; conditions: for inhibition at 10 µM: concentration of 10^−5 mol/L, preliminary screening, 72 hours, read-out: Inhibition rate % NCI-H446; for IC50: secondary screening, 48 hours
Source text: as §1, §2
2.2.5 Human Small Cell Lung Cancer Cell Line (NCI-H446)
as §9, §4, §5, §6, §7

[12] = test system: Human Ovarian Cancer Cell Line (SK-OV-3); assay: Tumor cell proliferation assay (MTT), SK-OV-3; conditions: for inhibition at 10 µM: concentration of 10^−5 mol/L, preliminary screening, 72 hours, read-out: Inhibition rate % SK-OV-3; for IC50: secondary screening, 48 hours
Source text: as §1, §2
2.2.13 Human Ovarian Cancer Cell Line (SK-OV-3).
as §8, §4, §5, §6, §7

| Structure (SMILES) | inhibition at 10 µM [1] [%] | inhibition at 10 µM [2] [%] | inhibition at 10 µM [3] [%] | inhibition at 10 µM [4] [%] | inhibition at 10 µM [5] [%] | inhibition at 10 µM [6] [%] | inhibition at 10 µM [7] [%] | inhibition at 10 µM [8] [%] | other results |
| --- | --- | --- | --- | --- | --- | --- | --- | --- | --- |
| Cc1[nH]c2c(c1C(=O)N1CCOCC1)CCC/C2=C1/C(=O)Nc2ccc(Cl)cc21 [I-11, 2-methyl-3-(morpholine-4-carbonyl)-7-[1,2-dihydro-5-chloro-2-oxo-3H-indol-(Z)-3-ylidene]-4,5,6,7-tetrahydro-1H-indole] | 0 | 2.92 | – | – | – | – | – | – | – |
| Cc1[nH]c2c(c1C(=O)N1CCOCC1)CCC/C2=C1/C(=O)Nc2ccc(F)cc21 [I-10, 2-methyl-3-(morpholine-4-carbonyl)-7-[1,2-dihydro-5-fluoro-2-oxo-3H-indol-(Z)-3-ylidene]-4,5,6,7-tetrahydro-1H-indole] | 27.5 | 43.5 | 30.9 | 0 | 51.7 | 15.2 | 11.7 | 7.64 | – |
| Cc1[nH]c2c(c1C(=O)N1CCN(C)CC1)CCC/C2=C1/C(=O)Nc2ccccc21 [I-13, 2-methyl-3-(4-methylpiperazine-1-carbonyl)-7-[1,2-dihydro-2-oxo-3H-indol-(Z)-3-ylidene]-4,5,6,7-tetrahydro-1H-indole] | 9.04 | 46 | 63.2 | 9.79 | 42.4 | 11.1 | 0 | 3.82 | – |
| CCOC(=O)c1c(C)[nH]c2c1CCC/C2=C1/C(=O)Nc2ccc(F)cc21 [I-1, ethyl 2-methyl-7-[1,2-dihydro-5-fluoro-2-oxo-3H-indol-(Z)-3-ylidene]-4,5,6,7-tetrahydro-1H-indole-3-carboxylate] | – | – | – | – | – | – | – | – | inhibition at 10 µM [9]: 28.6% |
| Cc1[nH]c2c(c1C(=O)N1CCOCC1)CCC/C2=C1/C(=O)Nc2ccccc21 [I-12, 2-methyl-3-(morpholine-4-carbonyl)-7-[1,2-dihydro-2-oxo-3H-indol-(Z)-3-ylidene]-4,5,6,7-tetrahydro-1H-indole] | 14.6 | 12.8 | 78.4 | 11.7 | 29.5 | 31.9 | 23.3 | 1.1 | inhibition at 10 µM [10]: 36.5% |
| Cc1[nH]c2c(c1C(=O)N(C)C)CCC/C2=C1/C(=O)Nc2ccccc21 [I-15, N,N,2-trimethyl-7-[1,2-dihydro-2-oxo-3H-indol-(Z)-3-ylidene]-4,5,6,7-tetrahydro-1H-indole-3-carboxamide] | 74.8 | 61.1 | – | – | – | – | – | – | – |
| CCN(CC)CC(O)CNC(=O)c1c(C)[nH]c2c1CCC/C2=C1/C(=O)Nc2ccc(Cl)cc21 (stereo not drawn) [I-65, N-(3-(diethylamino)-2-hydroxypropyl)-2-methyl-7-[1,2-dihydro-5-chloro-2-oxo-3H-indol-(Z)-3-ylidene]-4,5,6,7-tetrahydro-1H-indole-3-carboxamide] | 97.9 | 100 | 98.3 | – | 99.2 | 91.1 | 98.1 | 85 | IC50 [3]: 3.06 µM; IC50 [1]: 2.73 µM; IC50 [5]: 1.15 µM; inhibition at 10 µM [11]: 99%; IC50 [11]: 1.5 µM; IC50 [6]: 1.72 µM; IC50 [7]: 1.67 µM; inhibition at 10 µM [12]: 95.7%; IC50 [12]: 2.23 µM; IC50 [2]: 2.8 µM; IC50 [8]: 2.38 µM |
| Cc1[nH]c2c(c1C(=O)NCC(O)CN1CCCCC1)CCC/C2=C1/C(=O)Nc2ccc(Cl)cc21 (stereo not drawn) [I-75, N-(2-hydroxy-3-(piperidin-1-yl)propyl)-2-methyl-7-[1,2-dihydro-5-chloro-2-oxo-3H-indol-(Z)-3-ylidene]-4,5,6,7-tetrahydro-1H-indole-3-carboxamide] | 99.9 | 99 | 67.3 | – | 73.1 | 45.4 | 53.6 | 40.1 | IC50 [3]: 5.17 µM; IC50 [1]: 3.99 µM; IC50 [5]: 4.47 µM; inhibition at 10 µM [11]: 44.1%; IC50 [11]: 9.25 µM; IC50 [6]: 11.1 µM; IC50 [7]: 3.58 µM; inhibition at 10 µM [12]: 49.2%; IC50 [12]: 5.69 µM; IC50 [2]: 3.59 µM; IC50 [8]: 14.5 µM |
